15 compounds from patent US20160235727A1, “NOVEL PYRROLIDINE DERIVED BETA 3 ADRENERGIC RECEPTOR AGONISTS” (Merck Sharp & Dohme Corp., priority 2013, published 2016) can be followed below.

In general, EC50 refers to the concentration needed to bring the measured effect to its halfway point.

The experiment concerns the target T1, human β3-AR (Homo sapiens, UniProt P13945).
T1 construct: expressed in transfected cells; host or cells: CHO (Chinese hamster ovary) cells, stably transfected
Nature of the experiment: cAMP functional agonist assay (LANCE TR-FRET) in CHO cells expressing cloned human β3-AR. It is filed as cell-based. As to conditions: for EC50: CHO cells stably expressing cloned human β3-adrenoceptor, cAMP release, read-out: Human β3-AR Agonism EC50; for Fold drop in potency vs. 2-chloropyridine analog: EC50 of comparative example divided by EC50 of corresponding 2-chloropyridine compound; for Human β3-AR Agonist Activity (%): percent maximum activation relative to isoproterenol. On the procedure: The ability of compounds to activate the human β3-AR receptor was measured using a CHO cell line stably expressing the cloned human β1-, β2-, and β3-adrenoceptors (β-AR). […] To quantify the amount of cAMP released following β-AR activation, the LANCE cAMP kit (Perking Elmer), a time-resolved fluorescence resonance energy transfer immunoassay, was used. Compounds were serially diluted in DMSO and an aliquot added to either 384-well or 96-well micro titer plates in assay buffer (5 mM HEPES, 0.1% BSA in Hank's Balanced Salt Solution). […] Following 30 min incubation at room temperature, the cells were lysed by the addition of LANCE detection buffer which contained a europium-labeled cAMP tracer. Fluorescence was measured following one hour incubation at room temperature using a Perking Elmer Envision plate reader, exciting at 340 nm and measuring emission at 615 nm and 665 nm. For each assay, a cAMP standard curve was included and used to convert fluorescence readings directly to cAMP amounts. The values were then normalized to isoproterenol, a known full agonist of β-AR, which was titrated in every assay and the EC50 determined using a custom in-house data analysis package. Along with EC50, the percent maximum activation relative to isoproterenol is reported.
The cAMP production is measured using a homogenous time-resolved fluorescence resonance energy transfer immunoassay (LANCE™, Perkin Elmer) according to the manufacture's instructions. Chinese hamster ovary (CHO) cells, stably transfected with the cloned β-adrenergic receptor (β1, β2 or β3) are harvested after 3 days of subculturing. Harvesting of cells is done with Enzyme-free Dissociation Media (Specialty Media). Cells are then counted and resuspended in assay buffer (Hank's Balanced salt solution supplemented with 5 mM HEPES, […]) containing a phosphodiesterase inhibitor (IBMX, 0.6 mM). The reaction is initiated by mixing 6,000 cells in 6 μL with 6 μL Alexa Fluor labeled cAMP antibody (LANCE™ kit) which is then added to an assay well containing 12 μL of compound (diluted in assay buffer to 2× final concentration). The reaction proceeds for 30 minutes at RT and is terminated by the addition of 24 ul detection buffer (LANCE™ kit). The assay plate is then incubated for 1 h at RT and time-resolved fluorescence measured on a Perkin Elmer Envision reader or equivalent. The unknown cAMP level is determined by comparing fluorescence levels to a cAMP standard curve.
The non-selective, full agonist β-adrenergic ligand isoproterenol is used at all three receptors to determine maximal stimulation. […] Data are analyzed using Microsoft Excel and Graphpad Prism or an internally developed data analysis software package. […]
(In general: TR-FRET usually uses a lanthanide donor and a delayed reading to cut background.)

Each structure is given as a SMILES string. Some results are limits rather than exact numbers.

T1 sequence (P13945 whole entry): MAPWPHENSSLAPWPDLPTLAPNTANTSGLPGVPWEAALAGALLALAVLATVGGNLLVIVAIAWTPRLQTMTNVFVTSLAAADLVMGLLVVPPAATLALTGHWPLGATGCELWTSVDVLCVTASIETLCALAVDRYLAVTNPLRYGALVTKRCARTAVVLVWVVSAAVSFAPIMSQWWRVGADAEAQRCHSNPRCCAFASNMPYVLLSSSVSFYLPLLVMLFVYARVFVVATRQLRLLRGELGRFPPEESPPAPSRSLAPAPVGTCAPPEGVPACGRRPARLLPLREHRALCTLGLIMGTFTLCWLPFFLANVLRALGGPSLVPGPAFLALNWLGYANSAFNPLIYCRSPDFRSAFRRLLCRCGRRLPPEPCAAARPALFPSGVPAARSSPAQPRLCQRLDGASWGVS

For the compound `Cc1nc(-c2ccc([C@@H](O)[C@H]3CC[C@@H](Cc4ccc(C(=O)N(C)Cc5cccnc5)cc4)N3)cn2)no1` [Example 21-L, 4-(((2S,5R)-5-((R)-hydroxy(6-(5-methyl-1,2,4-oxadiazol-3-yl)pyridin-3-yl)methyl)pyrrolidin-2-yl)methyl)-N-methyl-N-(pyridin-3-ylmethyl)benzamide], the EC50 was at least 10000 nM, the “Fold drop in potency vs. 2-chloropyridine analog” value is given as over 2300 fold and the “Human β3-AR Agonist Activity (%)” value is reported as 3%.
`CN(Cc1cccnc1)C(=O)c1ccc(C[C@@H]2CC[C@H]([C@H](O)c3ccc(C#N)nc3)N2)cc1` [Example 21-O, 4-(((2S,5R)-5-((R)-(6-cyanopyridin-3-yl)(hydroxy)methyl)pyrrolidin-2-yl)methyl)-N-methyl-N-(pyridin-3-ylmethyl)benzamide]: the half-maximal effective concentration (EC50) was 274 nM, the “Fold drop in potency vs. 2-chloropyridine analog” value is 64.3 fold and the “Human β3-AR Agonist Activity (%)” value worked out at 77%.
The corresponding values for `CN(Cc1cncc(C(C)(C)O)c1)C(=O)c1ccc(C[C@@H]2CC[C@H]([C@H](O)c3ccc(Cl)cc3)N2)cc1` [Example 32-G, 4-(((2S,5R)-5-((R)-(4-chlorophenyl)(hydroxy)methyl)pyrrolidin-2-yl)methyl)-N-((5-(2-hydroxypropan-2-yl)pyridin-3-yl)methyl)-N-methylbenzamide] are 16 nM, 1.2 fold and 98%.
Regarding `CC(C)[C@H](c1nn(C)c(=O)o1)N(C)C(=O)c1ccc(C[C@@H]2CC[C@H]([C@H](O)c3ccc(Cl)nc3)N2)cc1` [Example 19-A, 4-(((2S,5R)-5-((R)-(6-chloropyridin-3-yl)(hydroxy)methyl)pyrrolidin-2-yl)methyl)-N-methyl-N—((R)-2-methyl-1-(4-methyl-5-oxo-4,5-dihydro-1,3,4-oxadiazol-2-yl)propyl) benzamide], the EC50 amounted to 5 nM and the “Human β3-AR Agonist Activity (%)” value is given as 111%.
Consider `CN(Cc1cccnc1)C(=O)c1ccc(C[C@@H]2CC[C@H]([C@H](O)c3ccc(F)cc3)N2)cc1` [Example 21-F, 4-(((2S,5R)-5-((R)-(4-fluorophenyl)(hydroxy)methyl)pyrrolidin-2-yl)methyl)-N-methyl-N-(pyridin-3-ylmethyl)benzamide], for which the EC50 was found to be 12 nM, the “Fold drop in potency vs. 2-chloropyridine analog” value worked out at 2.9 fold and the “Human β3-AR Agonist Activity (%)” value stood at 94%.
Turning to `COCCN(C)C(=O)c1ccc(C[C@@H]2CC[C@H]([C@H](O)c3ccccc3)N2)cc1` [Example 1-B, 4-(((2S,5R)-5-((R)-hydroxy(phenyl)methyl)pyrrolidin-2-yl)methyl)-N-(2-methoxyethyl)-N-methylbenzamide], the EC50 was 443 nM, the “Fold drop in potency vs. 2-chloropyridine analog” value was 4.6 fold and the “Human β3-AR Agonist Activity (%)” value is 93%.
Turning to `COc1ncccc1CN(C)C(=O)c1ccc(C[C@@H]2CC[C@H]([C@H](O)c3ccc(Cl)nc3)N2)cc1` [Example 25-A, 4-(((2S,5R)-5-((R)-(6-chloropyridin-3-yl)(hydroxy)methyl)pyrrolidin-2-yl)methyl)-N-((2-methoxypyridin-3-yl)methyl)-N-methylbenzamide], the concentration giving a half-maximal response (EC50) was found to be 18 nM and the “Human β3-AR Agonist Activity (%)” value turned out to be 98%.
`CN(Cc1cccc(=O)[nH]1)C(=O)c1ccc(C[C@@H]2CC[C@H]([C@H](O)c3ccc(OC(F)F)cc3)N2)cc1` [Example 20-E, 4-(((2S,5R)-5-((R)-(4-(difluoromethoxy)phenyl)(hydroxy)methyl)pyrrolidin-2-yl)methyl)-N-methyl-N-((6-oxo-1,6-dihydropyridin-2-yl)methyl)benzamide]: the 50% effective concentration (EC50) was found to be 86 nM, the “Fold drop in potency vs. 2-chloropyridine analog” value was 18.9 fold and the “Human β3-AR Agonist Activity (%)” value is 72%.
Consider `COCc1cc(CN(C)C(=O)c2ccc(C[C@@H]3CC[C@H]([C@H](O)c4ccccc4)N3)cc2)n[nH]1` [Example 9-B, 4-(((2S,5R)-5-((R)-hydroxy(phenyl)methyl)pyrrolidin-2-yl)methyl)-N-((5-(methoxymethyl)-1H-pyrazol-3-yl)methyl)-N-methylbenzamide], for which the EC50 came out at 15 nM, the “Fold drop in potency vs. 2-chloropyridine analog” value came out at 5.5 fold and the “Human β3-AR Agonist Activity (%)” value is 102%.
On to `CN(Cc1ccc(=O)[nH]c1)C(=O)c1ccc(C[C@@H]2CC[C@H]([C@H](O)c3ccc(F)cc3)N2)cc1` [Example 28-F, 4-(((2S,5R)-5-((R)-(4-fluorophenyl)(hydroxy)methyl)pyrrolidin-2-yl)methyl)-N-methyl-N-((6-oxo-1,6-dihydropyridin-3-yl)methyl)benzamide], for which the concentration giving a half-maximal response (EC50) came out at 732 nM, the “Fold drop in potency vs. 2-chloropyridine analog” value was found to be 4.2 fold and the “Human β3-AR Agonist Activity (%)” value worked out at 88%.
Turning to `Cc1n[nH]c(CN(C)C(=O)c2ccc(C[C@@H]3CC[C@H]([C@H](O)c4ccccc4)N3)cc2)c1Cl` [Example 17-B, N-((4-chloro-5-methyl-1H-pyrazol-3-yl)methyl)-4-(((2S,5R)-5-((R)-hydroxy(phenyl)methyl)pyrrolidin-2-yl)methyl)-N-methylbenzamide], the EC50 was 17 nM, the “Fold drop in potency vs. 2-chloropyridine analog” value stood at 4.5 fold and the “Human β3-AR Agonist Activity (%)” value turned out to be 112%.
`COCc1cc(CN(C)C(=O)c2ccc(C[C@@H]3CC[C@H]([C@H](O)c4ccc(OC(F)F)cc4)N3)cc2)n[nH]1` [Example 9-E, 4-(((2S,5R)-5-((R)-(4-(difluoromethoxy)phenyl)(hydroxy)methyl)pyrrolidin-2-yl)methyl)-N-((5-(methoxymethyl)-1H-pyrazol-3-yl)methyl)-N-methylbenzamide]: the EC50 stood at 108 nM, the “Fold drop in potency vs. 2-chloropyridine analog” value turned out to be 39.6 fold and the “Human β3-AR Agonist Activity (%)” value was 76%.
For `CN(Cc1cnccn1)C(=O)c1ccc(C[C@@H]2CC[C@H]([C@H](O)c3ccccc3)N2)cc1` [Example 40-B, 4-(((2S,5R)-5-((R)-hydroxy(phenyl)methyl)pyrrolidin-2-yl)methyl)-N-methyl-N-(pyrazin-2-ylmethyl)benzamide], the EC50 came out at 17 nM, the “Fold drop in potency vs. 2-chloropyridine analog” value stood at 1.5 fold and the “Human β3-AR Agonist Activity (%)” value was 99%.
The corresponding values for `C[C@H](c1nn(C)c(=O)o1)N(C)C(=O)c1ccc(C[C@@H]2CC[C@H]([C@H](O)c3ccc(Cl)cc3)N2)cc1` [Example 18-G, 4-(((2S,5R)-5-((R)-(4-chlorophenyl)(hydroxy)methyl)pyrrolidin-2-yl)methyl)-N-methyl-N—((R)-1-(4-methyl-5-oxo-4,5-dihydro-1,3,4-oxadiazol-2-yl)ethyl)benzamide] are 13 nM, 1.7 fold and 101%.
Regarding `CN(Cc1cccnc1)C(=O)c1ccc(C[C@@H]2CC[C@H]([C@H](O)c3ccccc3)N2)cc1` [Example 21-B, 4-(((2S,5R)-5-((R)-hydroxy(phenyl)methyl)pyrrolidin-2-yl)methyl)-N-methyl-N-(pyridin-3-ylmethyl)benzamide], the EC50 came to 41 nM, the “Fold drop in potency vs. 2-chloropyridine analog” value is on record as 9.7 fold and the “Human β3-AR Agonist Activity (%)” value was 86%.
